Assay results taken from the RepoRT retention time repository.

Assay: A: acetonitrile + 0.1% formic acid + 10 mM ammonium formate; B: 5% water + 95% acetonitrile + 0.1% formic acid + 10 mM ammonium formate; gradient (min/%B) 0/10 2/10 22/100 27/100 27.1/10
Conditions: stereoisomer not certain

| Structure (SMILES) | LC retention time |
| --- | --- |
| CS(=N)(=O)CC[C@H](N)C(=O)O (stereo partly drawn) [(2S)-2-Amino-4-(S-methylsulfonimidoyl)butanoic acid] | 6.69 min |
| NC[C@@H](O)CC(=O)O [(S)-(+)-4-Amino-3-hydroxybutyric acid] | 6.5 min |
| CC1OC(OC2C(CO)OC(OC3C(CO)OC(O)C(O)C3O)C(O)C2O)C(O)C(O)C1NC1C=C(CO)C(O)C(O)C1O (configuration not stated) [Acarbose] | 8.07 min |
| CC(=O)Nc1nnc(S(N)(=O)=O)s1 [Acetazolamide] | 0.529 min |
| Nc1ncnc2nc[nH]c12 [Adenine] | 2 min |
| Nc1ncnc2c1ncn2C1OC(COP(=O)(O)OP(=O)(O)O)C(O)C1O (configuration not stated) [Adenosine 5'-diphosphate] | 9.46 min |
| Nc1ncnc2c1ncn2C1OC(COP(=O)(O)O)C(O)C1O (configuration not stated) [Adenosine-5'-monophosphate] | 6.76 min |
| Nc1ncnc2c1ncn2C1OC(CO)C(O)C1O (configuration not stated) [Adenosine] | 2.08 min |
| NCCCCN=C(N)N [Agmatine] | 6.99 min |
| CC(C=CC=C(C)C=CC1=C(C)CCCC1(C)C)=CC=O [All trans-Retinal] | 0.407 min |
| NC(=O)NC(NC(N)=O)C(=O)O [Allantoic acid] | 6.54 min |
| NC(=O)NC1NC(=O)NC1=O (configuration not stated) [Allantoin] | 3.1 min |
| O=c1[nH]cnc2[nH]ncc12 [Allopurinol] | 0.996 min |
| NC(N)=NC(=O)c1nc(Cl)c(N)nc1N [Amiloride] | 2.91 min |
| NC(CCCC(=O)O)C(=O)O (configuration not stated) [Aminoadipic acid] | 6.5 min |
| N#CC(OC1OC(COC2OC(CO)C(O)C(O)C2O)C(O)C(O)C1O)c1ccccc1 (configuration not stated) [Amygdalin] | 4.24 min |
| COC(=O)C1=CCCN(C)C1 [Arecoline] | 2.06 min |
| O=C(O)CCCCCCCC(=O)O [Azelaic acid] | 0.604 min |

| Structure (SMILES) | LC retention time |
| --- | --- |
| NCC(CC(=O)O)c1ccc(Cl)cc1 (configuration not stated) [Baclofen] | 4.14 min |
| C[N+](C)(C)CC(=O)[O-] [Betaine] | 5.7 min |
| O=C(O)CN(CCO)CCO [Bicine] | 6.2 min |
| C=CC1=C(C)C(=Cc2[nH]c(Cc3[nH]c(C=C4NC(=O)C(C)=C4C=C)c(C)c3CCC(=O)O)c(CCC(=O)O)c2C)NC1=O [Bilirubin] | 0.518 min |
| O=C(O)CCCCC1SCC2NC(=O)NC21 (configuration not stated) [Biotin] | 1.17 min |
| CC(NC(C)(C)C)C(=O)c1cccc(Cl)c1 (configuration not stated) [Bupropion] | 0.963 min |
| Cn1c(=O)c2c(ncn2C)n(C)c1=O [Caffeine] | 0.477 min |
| CCCCCCCC(=O)NCC(=O)O [Capryloyl glycine] | 0.943 min |
| CC(CS)C(=O)N1CCCC1C(=O)O (configuration not stated) [Captopril] | 1.1 min |
| NC(CSCC(=O)O)C(=O)O (configuration not stated) [Carbocysteine] | 6.96 min |
| CN=C(NC#N)NCCSCc1nc[nH]c1C [Cimetidine] | 2.59 min |
| C=CC1CN2CCC1CC2C(O)c1ccnc2ccccc12 (configuration not stated) [Cinchonidine] | 2.2 min |
| C[N+](C)(C)CCOP(=O)(O)OP(=O)([O-])OCC1OC(n2ccc(N)nc2=O)C(O)C1O (configuration not stated) [Citicoline] | 8.51 min |
| CC(=CC(=O)O)C(=O)O [Citraconic acid] | 0.78 min |
| CN(CC(=O)O)C(N)=NP(=O)(O)O [Creatine phosphate] | 7.86 min |
| CN(CC(=O)O)C(=N)N [Creatine] | 6.15 min |
| CN1CC(=O)NC1=N [Creatinine] | 2.58 min |

Second part, the compound after the results:

| LC retention time | Structure (SMILES) |
| --- | --- |
| 0.622 min | CN1C(=O)CCC1c1cccnc1 [(S)-Cotinine] |
| 2.28 min | CCCC(=O)Nc1ccc(OCC(O)CNC(C)C)c(C(C)=O)c1 (configuration not stated) [Acebutolol] |
| 5.66 min | Nc1ncnc2c1ncn2C1OC2COP(=O)(O)OC2C1O (configuration not stated) [Adenosine cyclophosphate] |
| 0.433 min | CC(=O)OCC(=O)C12OC3(CCCC3)OC1CC1C3CCC4=CC(=O)C=CC4(C)C3(F)C(O)CC12C (configuration not stated) [Amcinonide] |
| 0.756 min | CCCCc1oc2ccccc2c1C(=O)c1cc(I)c(OCCN(CC)CC)c(I)c1 [Amiodarone] |
| 0.977 min | CN(C)CCC=C1c2ccccc2CCc2ccccc21 [Amitriptyline] |
| 2.02 min | CCOC(=O)C1=C(COCCN)NC(C)=C(C(=O)OC)C1c1ccccc1Cl (configuration not stated) [Amlodipine] |
| 5.79 min | CC1(C)SC2C(NC(=O)C(N)c3ccc(O)cc3)C(=O)N2C1C(=O)O (configuration not stated) [Amoxicillin] |
| 4.86 min | CC1(C)SC2C(NC(=O)C(N)c3ccccc3)C(=O)N2C1C(=O)O (configuration not stated) [Ampicillin] |
| 0.481 min | O=c1cc(-c2ccc(O)cc2)oc2cc(O)cc(O)c12 [Apigenin] |
| 1.25 min | O=C1CCc2ccc(OCCCCN3CCN(c4cccc(Cl)c4Cl)CC3)cc2N1 [Aripiprazole] |
| 4 min | COC(=O)C(Cc1ccccc1)NC(=O)C(N)CC(=O)O (configuration not stated) [Aspartame] |
| 3.34 min | CC(C)NCC(O)COc1ccc(CC(N)=O)cc1 (configuration not stated) [Atenolol] |
| 1.02 min | CNCCC(Oc1ccccc1C)c1ccccc1 (configuration not stated) [Atomoxetine] |
| 0.416 min | CCC(=O)OCC(=O)C1(OC(=O)CC)C(C)CC2C3CCC4=CC(=O)C=CC4(C)C3(Cl)C(O)CC21C (configuration not stated) [Beclometasone dipropionate] |
| 0.91 min | OC(CCN1CCCCC1)(c1ccccc1)C1CCCCC1 (configuration not stated) [Benzhexol] |

| LC retention time | Structure (SMILES) |
| --- | --- |
| 0.413 min | O=C(C=Cc1ccccc1)OCc1ccccc1 [Benzyl cinnamate] |
| 0.872 min | COc1ccc2c(c1OC)=CN1CCc3cc4c(cc3C1C=2)OCO4 (configuration not stated) [Berberine] |
| 0.424 min | COc1ccc(-c2coc3cc(O)cc(O)c3c2=O)cc1 [Biochanin A] |
| 0.429 min | CC12CCC(=O)C=C1C=CC1C2CCC2(C)C1CCC21CCC(=O)O1 (configuration not stated) [Canrenone] |
| 0.469 min | NC(=O)N1c2ccccc2C=Cc2ccccc21 [Carbamazepine] |
| 1.03 min | COc1ccccc1OCCNCC(O)COc1cccc2[nH]c3ccccc3c12 (configuration not stated) [Carvedilol] |
| 1.33 min | O=C(O)COCCN1CCN(C(c2ccccc2)c2ccc(Cl)cc2)CC1 (configuration not stated) [Cetirizine] |
| 4.76 min | O=C(C=Cc1ccc(O)c(O)c1)OC1CC(O)(C(=O)O)CC(O)C1O (configuration not stated) [Chlorogenic acid] |
| 1 min | CN(C)CCCN1c2ccccc2Sc2ccc(Cl)cc21 [Chlorpromazine] |
| 0.434 min | O=c1cc(-c2ccccc2)oc2cc(O)cc(O)c12 [Chrysin] |
| 0.991 min | CN(C)CCCC1(c2ccc(F)cc2)OCc2cc(C#N)ccc21 (configuration not stated) [Citalopram] |
| 0.799 min | CCN(CC)CCOc1ccc(C(=C(Cl)c2ccccc2)c2ccccc2)cc1 [Clomiphene] |
| 0.942 min | CN(C)CCCN1c2ccccc2CCc2ccc(Cl)cc21 [Clomipramine] |
| 0.459 min | CC12CCC(=O)C=C1CCC1C2CCC2(C)C1CCC2(O)C(=O)CO (configuration not stated) [Cortexolone] |
| 0.472 min | CC12CCC(=O)C=C1CCC1C2C(O)CC2(C)C(C(=O)CO)CCC12 (configuration not stated) [Corticosterone] |
| 0.431 min | O=c1ccc2ccccc2o1 [Coumarin] |
